Calls of active or inactive are those of the source.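 How the source made its calls: active means signal decrease with fitted half-maximal dose at or below ten times the highest valid tested dose; inconclusive means poor fit, or flat fit at 30 to 70% inhibition; inactive means the rest.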
These molecules were tested against Zinc finger protein mex-5 (Caenorhabditis elegans) (UniProt Q9XUB2) (assay: MEX-5 zinc finger-RNA interaction blockers – biochemical, fluorescence polarization, C. elegans, cherry-picked, round 3, dose response (AID 493250)). Conditions: purified MEX-5-MBP, FITC-TCR2 RNA fluorescence polarization.
Sequence of Zinc finger protein mex-5 (Caenorhabditis elegans) (Q9XUB2 whole entry, looked up): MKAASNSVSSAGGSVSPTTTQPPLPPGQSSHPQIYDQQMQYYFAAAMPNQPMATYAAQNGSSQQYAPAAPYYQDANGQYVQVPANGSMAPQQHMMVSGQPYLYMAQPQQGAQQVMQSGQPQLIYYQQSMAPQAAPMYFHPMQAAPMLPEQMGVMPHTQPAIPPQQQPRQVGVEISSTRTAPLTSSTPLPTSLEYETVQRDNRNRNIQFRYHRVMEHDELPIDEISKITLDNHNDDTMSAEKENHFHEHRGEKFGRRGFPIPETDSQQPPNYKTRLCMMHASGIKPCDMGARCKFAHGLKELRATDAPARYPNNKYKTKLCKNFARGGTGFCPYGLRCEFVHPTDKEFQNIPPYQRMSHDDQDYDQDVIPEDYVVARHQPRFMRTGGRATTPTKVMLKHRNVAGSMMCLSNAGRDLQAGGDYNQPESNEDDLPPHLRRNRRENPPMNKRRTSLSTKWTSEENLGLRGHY

SMILES | AC50
COC(=O)c1ccc2c(c1)SC1=C(CCCC1=O)N2 | 5.95 µM
C=CCn1c(=O)[nH]c2nc3cc(N=CN(C)C)c(C)cc3nc2c1=O | 5.73 µM
O=C1C(Cl)=C(NC2CCCCC2)C(=O)N1c1ccc(Cl)cc1 | > 10 µM (inactive)
CCN1/C(=C/C=C/c2oc3ccc(-c4ccccc4)cc3[n+]2CC)Oc2ccc(-c3ccccc3)cc21 | 0.338 µM
Cc1cc2c(C)nc(N/N=C/c3ccc([N+](=O)[O-])cc3)nc2o1 | 6.83 µM
CCOCCCn1c(=N)c(S(=O)(=O)c2ccccc2)cc2c(=O)n3cc(C)ccc3nc21 | 10.3 µM

Same assay, conditions: purified MEX-5-MBP, FITC-TCR2 RNA fluorescence polarization; at 10 µM (top of the series)

SMILES | activity change, negative = inhibition
O=C(O)c1ccc2c(c1)ncn2C1CCCCC1 | inactive
CN1CCCc2cc(C=O)ccc21 | inactive
CCOC(=O)c1cnc2c(N=Nc3ccccc3)c(N)nn2c1N | inactive
COc1ccc(C[C@@H]2c3cc(O)c(OC)cc3CCN2C)cc1O | inactive
Cc1cccc(/C=N/NC(=O)Cn2nnnc2N)n1 | inactive
CSCCCN1CCC(n2nccc2NC(=O)CCCc2ccccc2)CC1 | inactive
CC(=O)Nc1ccc(/C=N/NC(=O)CNS(=O)(=O)c2ccccc2)cc1 | inactive
CCOc1ccc(/C=N/n2c(C)nc3ccccc3c2=O)cc1 | inactive
CN1CCc2c(sc(NC(=O)c3ccc(S(=O)(=O)N4CCCC4)cc3)c2C(N)=O)C1 | inactive
Cc1cc(C)c2ccc(C(=O)O)nc2c1O | inactive
CN1CN(C)c2ccc([N+](=O)[O-])c3cccc1c23 | inactive
Cn1c(C2=C(O)CN(c3ccccc3)C2=N)nc2ccccc21 | inactive
COc1ccc(NC(=O)c2coc(C)c2)cc1 | inactive
Cc1ccc(O)c(-c2cc(C(=O)Nc3ccc(S(=O)(=O)Nc4nc(C)cc(C)n4)cc3)[nH]n2)c1 | inactive
CN(N)N=Nc1nc2c([nH]1)c(=O)n(C)c(=O)n2C | inactive
COC(=O)COc1ccc2c(c1)O/C(=C\c1cccc([N+](=O)[O-])c1)C2=O | inactive
CCOC(=O)C1Cc2ccccc2C(=O)O1 (stereo not drawn) | inactive
CN(C)CC(O)COc1ccc(C(C)(C)c2ccc(OCC(O)CN(C)C)cc2)cc1 (stereo not drawn) | inactive
COC(=O)c1cccc2nc3c(C(C)O)cccc3nc12 (stereo not drawn) | inactive
COc1ccccc1N=Nc1c(C)[nH][nH]c1=O | inactive
N#CC1=C(N)Oc2c(O)cc3ccccc3c2C1c1ccsc1 (stereo not drawn) | inactive
CCCCN(C(=O)c1ccc(C)o1)c1c(N)n(CCCC)c(=O)[nH]c1=O | inactive

SMILES | activity change, negative = inhibition
CC1=NN(C(N)=S)C(=O)C1N=Nc1cccc(Cl)c1C (stereo not drawn) | inactive
COCCNC(=S)N/N=C/c1c2ccccc2cc2ccccc12 | inactive
O=c1c(OC2OC(CO)C(O)C(O)C2O)c(-c2ccc(O)c(O)c2)oc2cc(O)cc(O)c12 (stereo not drawn) | inactive
COc1ccc2cc3c(N)c(C(=O)NCc4ccco4)sc3nc2c1 | inactive
CCN(CC)c1ccc(N=Cc2c(O)n(-c3ccccc3C)c(=O)[nH]c2=O)cc1 | inactive
O=C(CCc1ccccc1)N/N=C\c1cc2c(cc1Br)OCO2 | inactive
O=c1[nH]cnc2c1C(c1ccc(Cl)cc1)c1c(nc[nH]c1=O)O2 | inactive
CN1C(=O)NC(c2ccccc2Cl)C2=C1CC(C)(C)CC2=O (stereo not drawn) | inactive
Cc1c(Br)c(=O)oc2c(Br)c(O)c(O)cc12 | inactive
O=C(O)Cn1c(O)c(C2=c3ccccc3=NC2=O)sc1=O | inactive
O=C(NNc1ccccc1)C(=O)NNS(=O)(=O)c1ccc(CCCl)cc1 | inactive
Cc1ccc(-c2nc(C=Nc3cccc(C)c3)c(O)o2)cc1 | inactive
O=C(O)c1ccc(NC2=C(Cl)C(=O)c3ccccc3C2=O)cc1 | inactive
N#Cc1cc2c(=O)n3ccccc3nc2n(CCCN2CCOCC2)c1=O | inactive
CCN(CC)c1ccc(/C=N/N2CCN(c3ccccc3OC)CC2)cc1 | inactive
CCS(=O)(=O)c1ccc2oc(=O)c(/C=C(\O)c3ccc(Cl)cc3)nc2c1 | inactive
Cc1cccn2c(=O)c3cc(S(=O)(=O)c4ccc(Br)cc4)c(=N)n(C4CCCCC4)c3nc12 | inactive
COc1ccccc1NCc1cc(=O)oc2c(C)c(O)ccc12 | inactive
CSc1ccccc1N=Cc1nc(-c2ccccc2)oc1O | inactive
COC(=O)c1ccc(CC(=O)c2c(C)cc(O)cc2O)o1 | inactive
O=C1N=c2ccccc2=C1c1sc(=S)n(NC(=O)c2cccc(O)c2)c1O | inactive
NC1=NC(=O)/C(=C\c2ccc(O)c([N+](=O)[O-])c2)S1 | inactive

SMILES | activity change, negative = inhibition
Cn1ncc2c(NNC(=O)c3ccccc3Cl)ncnc21 | inactive
CCOC(=O)[C@]1(C#N)[C@@H]2C=CC(C(N)=O)=CN2[C@@H](C(N)=O)[C@@H]1c1ccc(F)cc1 | inactive
Cn1nc(C(=O)NNC(=O)c2ccc(Cl)cc2)ccc1=O | inactive
CC(=O)CSc1ncnc2nc[nH]c12 | inactive
Cc1c(N=Cc2cc3c(cc2[N+](=O)[O-])OCO3)cccc1[N+](=O)[O-] | inactive
COc1cc2c(cc1OC)[C@@H](Cc1ccc(OCCC#N)cc1)N(C)CC2 | inactive
O=C(O)c1ccc2cccnc2c1O | inactive
CC1=C(C(=O)OCc2ccccc2)C(c2ccc(N(C)C)cc2)NC(=O)N1 (stereo not drawn) | inactive
CN1C(=O)N(C)C(c2cccc([N+](=O)[O-])c2)C2=C1CCCC2=O (stereo not drawn) | inactive
N[C@@H](Cc1ccccc1)C(=O)N1CCC(C(=O)NCC(=O)Nc2ccc(F)cc2)CC1 | inactive
COC(=O)c1ccccc1N=Nc1c(N)n[nH]c1N | inactive
CCc1ccc(S(=O)(=O)/N=C2\C=C(Nc3ccc(C(=O)O)cc3)C(=O)c3ccccc32)cc1 | inactive
O=C1NC(=O)/C(=C/c2ccc(N3CCOCC3)o2)N1 | inactive
Oc1ccc(C2C=C(c3ccc(F)cc3)Nc3ncnn32)cc1 (stereo not drawn) | inactive
O=C(N/N=C/c1ccncc1)c1cc([N+](=O)[O-])cc([N+](=O)[O-])c1O | inactive
Cc1cccn2c(=O)c3cc(C(=O)NC(C)C)c(=N)n(Cc4ccncc4)c3nc12 | inactive
Cc1ccc(NC(=O)CCC(=O)NNC(=S)Nc2ccccc2)c(C)c1 | inactive
CCCOc1ccc(C2=CSC3=NCCN23)cc1[N+](=O)[O-] | inactive
COC(=O)c1ccc(-c2ccc(C(c3c(C)[nH][nH]c3=O)c3c(C)[nH][nH]c3=O)o2)cc1 | inactive
COc1ccc2c(c1)-c1ccccc1S(=O)(=O)N2C(C)=O | inactive
CC1(N2CCOCC2)CC2(O)C(=[N+]1[O-])CCc1c2no[n+]1[O-] (stereo not drawn) | inactive
CS(=O)(=O)c1nsc2nc(=O)c(/C=C3\C=Nc4ccccc43)c(N)n12 | inactive

SMILES | activity change, negative = inhibition
Cc1ccc(N/N=C(\C#N)C(=O)c2ccsc2)cc1 | inactive
CC(=O)c1c2c3c(c(Br)ccc3n(C)c1=O)C(=O)c1ccccc1-2 | inactive
Cc1cccnc1Nc1nc(-c2ccc(O)cc2O)cs1 | inactive
N#C/C(C(N)=O)=C1/CCc2ccccc2N1 | inactive
COc1ccc(OC)c(-n2c(-c3cc(-c4ccco4)[nH]n3)n[nH]c2=S)c1 | inactive
Cc1nc2c(N=Nc3ccccc3F)c(N)nn2c(N)c1C#N | inactive
O=C(O)CC1S/C(=N/N=C/c2ccc(-c3ccccc3[N+](=O)[O-])o2)NC1=O (stereo not drawn) | inactive
COc1ccccc1N1C(=O)S/C(=C\c2cccs2)C1=O | inactive
O=C1OC(C(=O)O)Cc2ccccc21 (stereo not drawn) | inactive
COc1cc(OC)c2ccc(=O)oc2c1C(CC(=O)N1CCCC1)c1ccc(N(C)C)cc1 (stereo not drawn) | inactive
CCN(CC)c1ccc(N2C(=O)c3ccccc3C2=O)cc1 | inactive
COc1ccc(OC)c(/C=C/C(=O)Nc2ccc(OC)nc2)c1 | inactive
Cc1ccc(C(=O)N/C(=C\c2ccc(-c3cccc([N+](=O)[O-])c3)o2)C(=O)NCCCN(C)C)cc1 | inactive
O=c1[nH]c2ccccc2n1Cc1ccc(Cl)cc1 | inactive
C=CCOc1ccc(C(c2c(C(=O)O)[nH]c3ccccc23)c2c(C(=O)O)[nH]c3ccccc23)cc1 | inactive
Cc1ccc2c(c1)-c1ccccc1S(=O)(=O)N2 | inactive
COc1ccc(-c2cn[nH]c2-c2ccc(OCC(=O)NN)cc2O)cc1 | inactive
Cc1ccc(N2C(=O)c3ccc(C(=O)O)cc3C2=O)cc1C | inactive
CCCCCC(=O)N(Cc1ccccc1)c1c(N)n(CCOC)c(=O)[nH]c1=O | inactive
CCCCn1c(N)c(N(Cc2ccccc2OC)C(=O)C(C)C)c(=O)[nH]c1=O | inactive
O=C1S/C(=C\c2cccs2)C(=O)N1c1ccc(O)cc1 | inactive
